Assay results published in PMC8041284, “Tunable Methacrylamides for Covalent Ligand Directed Release Chemistry” (Journal of the American Chemical Society, 2021).

biological target: BTK (Homo sapiens, UniProt Q06187); test: biochemical; details: read-out: BTK inhibition (%)
Sequence (Q06187 402-655 limits assumed): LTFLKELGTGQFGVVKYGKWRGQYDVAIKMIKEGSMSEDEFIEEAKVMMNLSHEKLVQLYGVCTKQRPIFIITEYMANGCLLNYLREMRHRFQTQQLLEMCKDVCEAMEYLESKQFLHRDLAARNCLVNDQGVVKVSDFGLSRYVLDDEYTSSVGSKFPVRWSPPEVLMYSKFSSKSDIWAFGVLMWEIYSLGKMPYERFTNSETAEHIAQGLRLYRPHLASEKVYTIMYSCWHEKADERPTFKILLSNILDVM

Row | Molecule | inhibition at 10 µM [%]
1 | COC(=O)C[C@](O)(CCC(C)(C)O)C(=O)O[C@@H]1C(OC)=C[C@]23CCCN2CCc2cc4c(cc2[C@H]13)OCO4 [PCM-0216362] | -7.7
2 | C[C@]12CC[C@H]3[C@@H](CCC4=CC(=O)C=C[C@@]43C)[C@@H]1CC[C@@H]2O [PCM-0216069] | -13.1
3 | C[C@@H]1C(=O)O[C@H]2[C@H](O)[C@]34[C@@H]5OC(=O)[C@]3(O[C@@H]3OC(=O)[C@H](O)[C@@]34[C@H](C(C)(C)C)[C@H]5O)[C@@]12O [PCM-0215011] | 5.4

same assay, conditions: read-out: BTK inhibition (%), 0.75 uM BTK, […] probe 3l, 15 min preincubation

Row | Molecule | inhibition at 10 µM [%]
4 | CO[C@@H]1[C@@H](OC)[C@H](C)[C@@](O)(CC(=O)O)O[C@H]1[C@H](C)[C@H]1O[C@@]2(CC[C@@](C)([C@H]3CC[C@@](C)([C@@H]4O[C@@H]([C@H]5O[C@](C)(O)[C@H](C)C[C@@H]5C)C[C@@H]4O[C@@H]4C[C@H](OC)[C@@H](OC)[C@H](C)O4)O3)O2)C[C@H](O)[C@H]1C [PCM-0216004] | -20.8
5 | O=C(O)CCc1ccc(NCc2cccc(Oc3ccccc3)c2)cc1 [PCM-0065313] | -41.4
6 | Ac-PHSCN-NH2 [PCM-0215851] | -5.1
7 | OC[C@H]1OC(O)[C@H](O)[C@@H](O)[C@@H]1O (some centres unmarked) [PCM-0095297] | -10.1
8 | CC1OC2OC3C(OCC(O)C3O)OC(=O)C34CCC(C)(C)CC3C3=CCC5C6(C)CC(O)C(OC7OC(CO)C(O)C(O)C7OC7OCC(OC(=O)CC(C)(O)CC(=O)OC1C(OC1OCC(O)C(O)C1O)C2O)C(O)C7O)C(C)(CO)C6CCC5(C)C3(C)CC4O (centres unmarked) [PCM-0216328] | -1.5
9 | CNCCCC12CCC(c3ccccc31)c1ccccc12 [PCM-0064754] | 11.7
10 | Nc1ccccc1NC(=O)c1cnccn1 [PCM-0215479] | -3.9
11 | O=C1Cc2cc(CCN3CCN(c4nsc5ccccc45)CC3)c(Cl)cc2N1 [PCM-0065598] | 52.1
12 | CN(C)CCC=C1c2ccccc2C(C)(C)c2ccccc21 [PCM-0216044] | -10.8
13 | CC1(C)O[C@H]2CC(=O)OC[C@]23[C@H]2CC[C@@]4(C)[C@H](c5ccoc5)OC(=O)[C@H]5O[C@]54[C@]2(C)C(=O)C[C@@H]13 [PCM-0214679] | -3.9
14 | Cc1nc2ccc(-n3ncc(C(=O)c4cc5ccccc5[nH]4)c3N)cc2[nH]1 [PCM-0215439] | 44.8
15 | Nc1ccc(S(=O)(=O)Nc2cnc3ccccc3n2)cc1 [PCM-0215994] | 8.5
16 | CNC(=O)c1cccc(-c2ccc3c(N4CCOC[C@@H]4C)nc(N4CCOC[C@@H]4C)nc3n2)c1 [PCM-0095362] | -2.8
17 | C[N+]1(C)CCCC(OC(=O)C(O)(c2ccccc2)c2ccccc2)C1 (centres unmarked) [PCM-0215256] | -7.8
18 | CN1CCN2c3ccccc3Cc3ccccc3C2C1 (centres unmarked) [PCM-0065420] | 12.4
19 | CC(=O)CCc1ccc(OC(C)=O)cc1 [PCM-0216104] | -10.8
20 | CC(=O)c1cc([N+](=O)[O-])c(Sc2ccc(F)cc2F)s1 [PCM-0215212] | 5.4
21 | S=C(N/N=C1\CCCc2cccnc21)N1CCN(c2ccccn2)CC1 [PCM-0215896] | 20.1
22 | O=C(O)C(=O)c1cn(Cc2ccccc2)c2ccc(-c3ccc(OC(F)(F)F)cc3)cc12 [PCM-0215526] | 34
23 | Cc1ncc([N+](=O)[O-])n1C [PCM-0216192] | -21.4
24 | C=C[C@@H]1C[C@]1(NC(=O)[C@@H]1C[C@@H](Oc2ncc(OC)c3ccc(Cl)cc23)CN1C(=O)[C@@H](NC(=O)OC(C)(C)C)C(C)(C)C)C(=O)NS(=O)(=O)C1CC1 [PCM-0215095] | -4.7
25 | NC(=O)NO [PCM-0065169] | 10.9
26 | O=C(O)CNC(=O)c1c(O)c2ccccc2n(Cc2ccccc2)c1=O [PCM-0095405] | -23.3

Row | Molecule | inhibition at 10 µM [%]
27 | Cc1ccc(C(C)C)cc1 [PCM-0216218] | -20.1
28 | CC1(C)O[C@@H]2C[C@H]3[C@@H]4CCC5=CC(=O)C=C[C@]5(C)[C@@]4(F)[C@@H](O)C[C@]3(C)[C@]2(C(=O)CO)O1 [PCM-0095180] | 6.9
29 | CCCCNc1ncc(C(=O)NCc2ccc(-n3ccnc3)cc2)c(NC2CCC(O)CC2)n1 (centres unmarked) [PCM-0215319] | 2.1
30 | NC1CCC(N[C@@H]2C[C@H]2c2ccccc2)CC1 (some centres unmarked) [PCM-0215562] | 13.1
31 | Nc1ccc(/C=C/C(=O)NCc2cc3cc(-c4ccc(C(=O)N5CCC(F)(F)CC5)cc4)cc(-c4ccc(F)cc4)c3o2)cn1 [PCM-0216035] | 31.7
32 | O=C(O)c1ccc(O)c(O)c1 [PCM-0215076] | 2.8
33 | CC(C)c1cc2c(c(O)c1O)[C@@]13CCCC(C)(C)[C@@H]1C[C@@H]2OC3=O [PCM-0216410] | 10.8
34 | CNCC(=O)c1ccc(O)c(O)c1 [PCM-0090552] | 10.9
35 | O=C(/C=C/c1ccccc1)OCc1ccccc1 [PCM-0215962] | 6.9
36 | CN1C(=O)[C@@H](NC(=O)c2n[nH]c(Cc3ccccc3)n2)COc2ccccc21 [PCM-0215843] | 6.2
37 | Cc1ccc(NC(=O)c2ccc(CN3CCN(C)CC3)cc2)cc1Nc1nc(-c2cccnc2)cs1 [PCM-0094992] | -47.6
38 | Nc1ncnc2c1ccn2[C@@H]1O[C@H]([C@H](O)c2ccccc2)[C@@H](O)[C@H]1O [PCM-0215960] | 13.1
39 | CO/N=C(\C(=O)N[C@@H]1C(=O)N2C(C(=O)OC(C)OC(C)=O)=C(COC(N)=O)CS[C@H]12)c1ccco1 (some centres unmarked) [PCM-0215079] | 2.8
40 | O=C(Nc1ccc(OC(F)(F)F)cc1)c1sccc1NCc1ccnc2ccccc12 [PCM-0094951] | 90.3
41 | O=C(O)Cn1nnc(-c2cc(N3CCC(Oc4cc(F)ccc4Br)CC3)no2)n1 [PCM-0094989] | 4.1
42 | C=CC[C@@H]1/C=C(\C)C[C@H](C)C[C@H](OC)[C@H]2O[C@@](O)(C(=O)C(=O)N3CCCC[C@H]3C(=O)O[C@H](/C(C)=C/[C@@H]3CC[C@@H](O)[C@H](OC)C3)[C@H](C)[C@@H](O)CC1=O)[C@H](C)C[C@@H]2OC [PCM-0214806] | -2.8
43 | C[C@@H]1[C@H]2c3cc4c(cc3O[C@@]35OCOC3=CC(=O)[C@H](C[C@H]1C)[C@@H]25)OCO4 [PCM-0216310] | 33.2
44 | Fc1ccc2c(/C=C/c3nn[nH]n3)c[nH]c2c1 [PCM-0215746] | 4.6
45 | O=C(O)CCc1ccc(O)cc1 [PCM-0215016] | -17.9
46 | CC(C)C[C@H](NC(=O)[C@H](Cc1ccccc1)NC(=O)c1cnccn1)B(O)O [PCM-0094909] | 8.6
47 | CC(C)C[C@H](NC(=O)[C@H](Cc1ccccc1)C[C@@H](O)[C@H](Cc1ccccc1)NC(=O)OC(C)(C)C)C(=O)N[C@@H](Cc1ccccc1)C(N)=O [PCM-0215547] | 5.4
48 | CC(C)=CCC[C@](C)(O[C@@H]1O[C@H](CO)[C@@H](O)[C@H](O)[C@H]1O)[C@H]1CC[C@]2(C)[C@@H]1[C@H](O)C[C@@H]1[C@@]3(C)CC[C@H](O)C(C)(C)[C@@H]3[C@@H](O[C@@H]3O[C@H](CO)[C@@H](O)[C@H](O)[C@H]3O[C@@H]3OC[C@@H](O)[C@H](O)[C@H]3O)C[C@]12C [PCM-0215161] | 5.5
49 | CNC(=O)c1cnn(-c2nc(N)c3ncn([C@@H]4O[C@H](CO)[C@@H](O)[C@H]4O)c3n2)c1 [PCM-0216236] | 5.4

Row | Molecule | inhibition at 10 µM [%]
50 | O=C(NOCC1CC1)c1ccc(F)c(F)c1Nc1ccc(I)cc1Cl [PCM-0094919] | 5.5
51 | O=c1cc(-c2ccccc2)oc2cc(O[C@@H]3O[C@H](CO[C@@H]4O[C@H](CO)[C@@H](O)[C@H](O)[C@H]4O)[C@@H](O)[C@H](O)[C@H]3O)c(O)c(O)c12 [PCM-0216453] | 30.9
52 | CN1CCC[C@H]1c1cccnc1 [PCM-0215258] | -1.6
53 | C[C@@](Cc1ccc(O)c(O)c1)(NN)C(=O)O [PCM-0065259] | -14.8
54 | CNC1CCCN(c2c(F)cc3c(=O)c(C(=O)O)cn(C4CC4)c3c2OC)C1 (centres unmarked) [PCM-0095230] | -5.4
55 | Cc1cc(Nc2ncc3c(n2)N(C)C(=O)N(c2cc(NC(=O)c4cccc(C(F)(F)F)c4)ccc2C)C3)n(C)n1 [PCM-0215636] | 104
56 | CN1CCN(c2ccc(OC(F)(F)F)c(Nc3ncc4c(n3)-c3c(c(C(N)=O)nn3CCO)CC4)c2)CC1 [PCM-0215357] | -26.9
57 | CC(Nc1nc(N2CCCC2)nc2ccccc12)c1ccccc1 (centres unmarked) [PCM-0215774] | -23.2
58 | CC(C)(O)CNc1ncc(-c2ccnc(Nc3ccncc3)n2)c(CC2CC2)n1 [PCM-0215768] | 9.7
59 | COc1ccc(/C=C\c2cc(OC)c(OC)c(OC)c2)cc1OP(=O)(O)O [PCM-0215231] | -27.2
60 | Cc1nnc(C(=O)NC(C)(C)c2nc(C(=O)NCc3ccc(F)cc3)c(O)c(=O)n2C)o1 [PCM-0095277] | 4.7
61 | CN(CCNCc1cn(Cc2ccc(Cl)cc2)nn1)CCNc1ccnc2cc(Cl)ccc12 [PCM-0215895] | -10.8
62 | NC1(Cc2ccc(Cl)cc2)CCN(c2ncnc3[nH]ccc23)CC1 [PCM-0095516] | 13.8
63 | NC(Cc1c[nH]c2ccc(O)cc12)C(=O)O (centres unmarked) [PCM-0094825] | -2.3
64 | CCCCCC1C(=O)CCC1CC(=O)OCCC (centres unmarked) [PCM-0216258] | -0.8
65 | C=C(C)[C@@H]1CC[C@]2(C=O)CC[C@]3(C)[C@H](CC[C@@H]4[C@@]5(C)CC[C@H](O)C(C)(C)[C@@H]5CC[C@]43C)[C@@H]12 [PCM-0216430] | 19.3
66 | C[C@H](CCC(=O)O)[C@H]1CC[C@H]2[C@@H]3CC[C@@H]4C[C@H](O)CC[C@]4(C)[C@H]3CC[C@]12C [PCM-0214742] | -8.6
67 | COc1ccc(C(NC(=O)c2cnc(-c3cccnn3)[nH]c2=O)c2ccc(OC)cc2)cc1 [PCM-0215803] | 18.5
68 | CN1C(=O)COc2c(C(=O)NC3CN4CCC3CC4)cc(Cl)cc21 (centres unmarked) [PCM-0095275] | -7.7
69 | CCN(CC)CCNC(=O)c1c(C)[nH]c(/C=C2\C(=O)Nc3ccc(-c4csc(-c5ccccc5)n4)cc32)c1C [PCM-0215844] | 29
70 | O=C(/C=C/c1ccc(O[C@@H]2O[C@H](CO)[C@@H](O)[C@H](O)[C@H]2O)cc1)c1ccc(O)cc1O [PCM-0216527] | 19.3
71 | CCOc1ccccc1-n1c(C(C)N2CCN(C(=O)COc3ccc(Cl)cc3)CC2)nc2ccccc2c1=O (centres unmarked) [PCM-0095811] | 15.4
